This note sets out measurements from patent US20250034170A1, “SMALL MOLECULE MODULATORS OF GLUCOCEREBROSIDASE ACTIVITY AND USES THEREOF” (Vanqua Bio, Inc., priority 2021, published 2025).

This assay concerns the target T1, GCase (Homo sapiens, UniProt P04062).
T1 construct: endogenous in cells; host or cells: HeLa cells
T1 sequence (P04062 40-536): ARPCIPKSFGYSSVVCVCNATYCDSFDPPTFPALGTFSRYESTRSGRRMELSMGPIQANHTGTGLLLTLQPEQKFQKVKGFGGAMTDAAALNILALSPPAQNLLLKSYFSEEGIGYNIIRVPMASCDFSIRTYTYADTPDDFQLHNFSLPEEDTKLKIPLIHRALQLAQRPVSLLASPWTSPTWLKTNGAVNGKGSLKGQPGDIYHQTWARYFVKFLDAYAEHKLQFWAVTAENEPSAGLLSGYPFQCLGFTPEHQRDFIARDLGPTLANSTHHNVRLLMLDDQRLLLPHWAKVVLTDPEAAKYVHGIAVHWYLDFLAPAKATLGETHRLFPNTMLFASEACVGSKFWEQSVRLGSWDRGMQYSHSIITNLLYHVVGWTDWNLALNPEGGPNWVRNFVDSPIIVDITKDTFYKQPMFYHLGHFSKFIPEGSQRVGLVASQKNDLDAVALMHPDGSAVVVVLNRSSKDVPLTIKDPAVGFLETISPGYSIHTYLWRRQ
As to the kind of experiment: activation of GCase in a live cell PFB assay in HELA cells. The assay is classed as cell-based. How it is done:
Exemplary compounds were evaluated for activation of GCase in a live cell PFB assay in HELA cells (essentially as described in Ysselstein et al., “LRRK2 kinase activity regulates lysosomal glucocerebrosidase in neurons derived from Parkinson's disease patients” Nature Communications (2019) 10:5570). […] EC50 ranges: A: <10 μM; B: >10-50 μM; C: >50-100 μM; D: >100 μM.

The mark [1] stands for this setting: activation of GCase, EC50 ranges.

As a reminder, the EC50 is the concentration at which the effect is half-maximal. Low values mean greater potency, high ones weaker potency.

`O=C(c1ccc2cc[nH]c2c1)N1CCCC2(CC(Oc3cnccc3C(F)(F)F)C2)C1` (stereo not shown) [Compound 40, 6-(1H-indole-6-carbonyl)-2-{[4-(trifluoromethyl)pyridin-3-yl]oxy}-6-azaspiro[3.5]nonane] gave a concentration giving a half-maximal response (EC50) under setting [1] of 50 to 100 µM.

As for `FC(F)Cn1ncc2ncc(N3CCC4(CCN(c5cc(C(F)F)ccn5)CC4)C3)nc21` [Compound 161, 2-[1-(2,2-difluoroethyl)-1H-pyrazolo[3,4-b]pyrazin-6-yl]-8-[4-(difluoromethyl)pyridin-2-yl]-2,8-diazaspiro[4.5]decane], under setting [1], the EC50 lay in the range of 10 to 50 µM.

Turning to `Cc1nc(N2CCC3(CCN(c4cnc5c(C)nn(CC(F)F)c5n4)C3)C2)cc(C(F)(F)F)n1` (stereo not shown) [Cmpd 537], the EC50 under setting [1] was more than 100 µM.

`Cc1nc(N2CC3(CCN(c4cncc(-c5ccn(CC(F)(F)F)n5)n4)C3)C2)cc(C(F)(F)F)n1` [Cmpd 1120] displayed an EC50 under setting [1] of more than 100 µM.

In the case of `Cc1nc(N2CC3(CCN(c4ncc5cnn(C6COC6)c5n4)C3)C2)cc(C(F)(F)F)n1` [Cmpd 589], the EC50 (EC50 given as range classes) fell in the range of 10 to 50 µM.

With `FC(F)(F)c1ncc(N2CC3(CCN(c4cnc5cnn([C@@H]6CCOC6)c5n4)C3)C2)cn1` [Cmpd 655], the EC50 under setting [1] is 10 to 50 µM.

`Cc1ncc(N2CC3(CCN(c4cnc5cnn([C@H]6CCOC6)c5n4)C3)C2)c(C(F)(F)F)n1` [Cmpd 652] showed an EC50 under setting [1] of more than 100 µM.

On to `O=C1CC2(CCN(c3cnc4cnn(CC(F)F)c4n3)CC2)CCN1c1ccc(C(F)(F)F)cn1` [Cmpd 293], for which, under setting [1], the EC50 lay within 10 to 50 µM.

`O=C1N(c2ccc(C(F)(F)F)nc2)CCC12C1CCC2CN(c2cnc3cnn(CC(F)F)c3n2)C1` (stereo not shown) [Cmpd 799] displayed an EC50 (EC50 given as range classes) of less than 10 µM.

For the setting “EC50 given as range classes”, `FC(F)Cn1ncc2ncc(N3CCC4(CN(c5cccc(OC(F)F)n5)C4)C3)nc21` [Cmpd 406] came in with an EC50 of 10 to 50 µM.

The compound `Cc1nc(N2CCC3(CC2)CN(c2cnc4cnn(C5COC5)c4n2)C3)cc(C(F)(F)F)n1` [Cmpd 584] displayed an EC50 (EC50 given as range classes) of 10 to 50 µM.

Regarding `CCn1c(=O)n(CC(F)F)c2nc(N3CCC4(CN(c5ccnc(C(F)(F)F)c5)C4)C3)cnc21` [Cmpd 980], under “EC50 given as range classes”, the EC50 is less than 10 µM.

As for `FC(F)Cn1ncc2ncc(N3CCC4(CCN(c5ncccc5C(F)(F)F)CC4)C3)nc21` [Compound 151, 2-[1-(2,2-difluoroethyl)-1H-pyrazolo[3,4-b]pyrazin-6-yl]-8-[3-(trifluoromethyl)pyridin-2-yl]-2,8-diazaspiro[4.5]decane], under setting [1], the EC50 was in the range of 10 to 50 µM.

Turning to `FC(F)(F)c1ccc(N2CCC3(CCN(c4cncc(-n5cccn5)n4)CC3)C2)cn1` [Cmpd 239], the EC50 under setting [1] is less than 10 µM.

As to `FC(F)Cn1ncc2ncc(N3CCC4(CCN(c5cncc(C(F)(F)F)c5)C4)CC3)nc21` [Compound 148, 8-[1-(2,2-difluoroethyl)-1H-pyrazolo[3,4-b]pyrazin-6-yl]-2-[5-(trifluoromethyl)pyridin-3-yl]-2,8-diazaspiro[4.5]decane], under setting [1], the EC50 is less than 10 µM.

`O=C1CC2(CN1c1cnc(C(F)(F)F)cn1)C1CCC2CN(c2cnc3cnn(CC(F)F)c3n2)C1` (stereo not shown) [Cmpd 805] returned an EC50 (EC50 given as range classes) of 10 to 50 µM.

`Cc1nn(CC(F)F)c2nc(N3CCC4(CCN(c5cc(C(F)(F)F)ccn5)CC4)C3)cnc12` [Compound 140, 2-[1-(2,2-difluoroethyl)-3-methyl-1H-pyrazolo[3,4-b]pyrazin-6-yl]-8-[4-(trifluoromethyl)pyridin-2-yl]-2,8-diazaspiro[4.5]decane] displayed an EC50 under setting [1] of 10 to 50 µM.

With `Cc1ncc(N2CC3(CCN(c4ncc5cnn(CC(F)F)c5n4)C3)C2)c(C(F)(F)F)n1` [Cmpd 595], the EC50 (EC50 given as range classes) was less than 10 µM.

Turning to `O=C1N(c2ccc(C(F)(F)F)nc2)c2ccccc2C12CCN(c1cnc3cnn(CC(F)F)c3n1)CC2` [Cmpd 261], the EC50 under setting [1] lay in the range of 10 to 50 µM.

Under setting [1], `COc1nn(C2COC2)c2nc(N3CCC4(CC3)CC(=O)N(c3ccc(C(F)(F)F)nc3)C4)ncc12` [Cmpd 952] returned an EC50 of 10 to 50 µM.

For the compound `Cc1nn(CC(F)F)c2nc(N3CCC4(CCN(c5cnc(C(F)(F)F)nc5)C4)C3)cnc12` (stereo not shown) [Cmpd 530], the EC50 under setting [1] is less than 10 µM.

Under “EC50 given as range classes”, `Cc1ncc(N2CC3(CCN(c4cnc5c(C)nn(C6COC6)c5n4)C3)C2)c(C(F)(F)F)n1` [Cmpd 599] showed an EC50 of 10 to 50 µM.

`FC(F)Cn1ncc2ncc(N3CCOC4(CCN(c5cccc(C(F)(F)F)n5)CC4)C3)nc21` [Cmpd 211] gave a concentration for a half-maximal effect (EC50) (EC50 given as range classes) of 10 to 50 µM.

Under setting [1], `Cc1cc(N2CC3(CCN(c4cnc5cnn(C6COC6)c5n4)CC3)CC2=O)nc(C(F)(F)F)n1` [Cmpd 456] showed an EC50 of 10 to 50 µM.

Under setting [1], `CC(F)(F)c1ncc(N2CC3(CCN(c4cnc5cnn(CC(F)F)c5n4)C3)C2)cn1` [Cmpd 1088] yielded an EC50 of less than 10 µM.

For `O=C(c1cnc(C(F)(F)F)nc1)N1CC2(CCN(c3cnc4cnn(CC(F)F)c4n3)CC2)C1` [Cmpd 326], the EC50 under setting [1] was in the range of 10 to 50 µM.

Under setting [1], `CCn1c(-c2ccccc2)nc2ncc(N3CCC4(CN(c5ccnc(C(F)(F)F)c5)C4)C3)nc21` [Cmpd 1043] yielded an EC50 of less than 10 µM.

Regarding `Cc1nc(N2CC3(CCN(c4cnc5c(C)nn(CC(F)(F)F)c5n4)CC3)C2)cc(C(F)(F)F)n1` [Cmpd 610], the EC50 (EC50 given as range classes) is less than 10 µM.

In turn, `Cc1nn(CC(F)F)c2nc(N3CCC4(CC3)CCN(c3cc(C(F)(F)F)ccn3)C4=O)cnc12` [Compound 168, 8-[1-(2,2-difluoroethyl)-3-methyl-1H-pyrazolo[3,4-b]pyrazin-6-yl]-2-[4-(trifluoromethyl)pyridin-2-yl]-2,8-diazaspiro[4.5]decan-1-one] yielded an EC50 under setting [1] of less than 10 µM.

As to `COc1ncc(N2CCC3(CN(c4ccnc(C(F)(F)F)c4)C3)C2)nc1-c1nncs1` [Cmpd 1021], for the setting “EC50 given as range classes”, the EC50 is 10 to 50 µM.

As to `Cc1ccc(S(=O)(=O)N2CC3(CCN(c4cnc5cnn(CC(F)F)c5n4)C3)C2)cn1` [Cmpd 416], the EC50 (EC50 given as range classes) lay in the range of 10 to 50 µM.

Under “EC50 given as range classes”, `Cc1ccc(C(=O)N2CC3(CCN(c4cnc5cnn(CC(F)F)c5n4)C3)C2)cc1` [Cmpd 419] showed an EC50 of 10 to 50 µM.

Compound `O=C1N(Cc2cnc(C(F)(F)F)nc2)CCC12CCN(c1cnc3cnn(CC(F)F)c3n1)CC2` [Cmpd 843] registered an EC50 under setting [1] of 10 to 50 µM.

Under setting [1], `Cc1nc(N2CCC3(C2)CN(c2cnc4cnn(CC(F)F)c4n2)C3)cc(C(F)(F)F)n1` [Cmpd 551] returned an EC50 of less than 10 µM.

Under setting [1], `O=C1N(c2cc(C(F)(F)F)ccn2)C(=O)C2(CCN(c3cnc4cnn(CC(F)F)c4n3)CC2)N1Cc1ccccc1` [Compound 70, 1-benzyl-8-(1-(2,2-difluoroethyl)-1H-pyrazolo[3,4-b]pyrazin-6-yl)-3-(4-(trifluoromethyl)pyridin-2-yl)-1,3,8-triazaspiro[4.5]decane-2,4-dione] gave an EC50 of less than 10 µM.

For the compound `Cc1cc(N2CC3(CCN(c4cnc5c(C)nn(CC(F)(F)F)c5n4)C3)C2)nc(C(F)(F)F)n1` [Cmpd 607], the EC50 (EC50 given as range classes) was 10 to 50 µM.

With `FC(F)Cn1ncc2ncc(N3CCCC4(CN(c5ccccc5)C4)C3)nc21` [Compound 19, 6-[1-(2,2-difluoroethyl)-1H-pyrazolo[3,4-b]pyrazin-6-yl]-2-phenyl-2,6-diazaspiro[3.5]nonane], the EC50 under setting [1] is 10 to 50 µM.

As for `Cn1c(N2CCC3(CCN(c4ccnc(C(F)(F)F)n4)C3)CC2)nc2c(cnn2C2COC2)c1=O` [Cmpd 1060], the EC50 under setting [1] is less than 10 µM.

Take `FC(F)Cn1ncc2ncc(N3CCC4(CC3)CC(COc3cc(C(F)(F)F)ccn3)C4)nc21` [Cmpd 697]: the concentration giving a half-maximal response (EC50) under setting [1] fell in the range of 10 to 50 µM.

`Cc1nc(N2CC3(CCN(c4ncc5cnn(C6COC6)c5n4)CC3)C2)cc(C(F)(F)F)n1` [Cmpd 562]: under setting [1], the concentration for a half-maximal effect (EC50) was in the range of 10 to 50 µM.

In turn, `FC(F)(F)Cn1ncc2cnc(N3CCC4(CCN(c5ccnc(C(F)(F)F)c5)C4)C3)nc21` (stereo not shown) [Cmpd 489] registered an EC50 under setting [1] of 10 to 50 µM.

Under setting [1], `Cc1nc(N2CC3(CCN(c4cnc5cnn(C6COC6)c5n4)C3)C2)cc(C(F)(F)F)n1` [Cmpd 1063] came in with an EC50 of 10 to 50 µM.

In the case of `FC(F)Cn1ncc2ncc(N3CCC4(CN(c5cccc(OCC(F)(F)F)n5)C4)C3)nc21` [Cmpd 409], the 50% effective concentration (EC50) (EC50 given as range classes) is 10 to 50 µM.

Regarding `O=C1CC2(CCN(c3cnc4cnn(CC(F)F)c4n3)C2)CCN1c1ccc(C(F)(F)F)nc1` (stereo not shown) [Cmpd 789], where the note is “EC50 given as range classes”, the EC50 lay in the range of 10 to 50 µM.

For `O=C1N(c2cnc3cnn(CC(F)F)c3n2)CCC12CC1CCC(C2)N1c1ccc(C(F)(F)F)nc1` (stereo not shown) [Cmpd 803], the EC50 (EC50 given as range classes) was less than 10 µM.

As to `FC(F)(F)Cn1ncc2ncc(N3CC4(CCN(c5ccnc(C(F)(F)F)c5)C4)C3)nc21` [Cmpd 350], under setting [1], the EC50 was less than 10 µM.

For the compound `O=C1CCC2(CCN(c3cnc4cnn(CC(F)F)c4n3)C2)CN1c1cc(C(F)(F)F)ccn1` (stereo not shown) [Cmpd 794], under “EC50 given as range classes”, the concentration giving a half-maximal response (EC50) was less than 10 µM.

Under setting [1], `Cn1c(N2CCC3(CC2)CC(=O)N(c2cc(C(F)(F)F)ccn2)C3)nc2c(cnn2CC(F)F)c1=O` [Cmpd 922] had an EC50 of less than 10 µM.

As to `FC(F)Cn1ncc2ncc(N3CCC4(CCN(c5cncc(C(F)(F)F)c5)CC4)C3)nc21` [Compound 153, 2-[1-(2,2-difluoroethyl)-1H-pyrazolo[3,4-b]pyrazin-6-yl]-8-[5-(trifluoromethyl)pyridin-3-yl]-2,8-diazaspiro[4.5]decane], the EC50 under setting [1] is less than 10 µM.

Under setting [1], `O=C1N(Cc2cncc(C(F)(F)F)c2)CCC12CCN(c1cnc3cnn(CC(F)F)c3n1)CC2` [Cmpd 332] registered an EC50 of less than 10 µM.

Where the note is “EC50 given as range classes”, `O=C(c1cc(Cl)cc(Cl)n1)N1CC2(CCN(c3cnc4cnn(CC(F)F)c4n3)C2)C1` [Cmpd 420] yielded an EC50 of 10 to 50 µM.

Compound `CCn1c(-c2cncc(F)c2)nc2nc(N3CCC4(CN(c5ccnc(C(F)(F)F)c5)C4)C3)cnc21` [Cmpd 1045] registered an EC50 under setting [1] of 50 to 100 µM.
